Measured values: patent US11413278B2, “Compounds and methods for promoting stress resistance” (priority 2015, dated 2022)
Read-outs that look alike come from different tables or passages of the source.

Experiments:
[1] = tested on: WI-38 cells; test: CdCl2 (cadmium) resistance assay; type: cell-based, human; details: for fold induction at 10 µM: Homo sapiens, 12 h, normalized ATP measurement; for Assay 4: H2O2- & Cd-resistant / Assay 2: Cadmium-resistant: YES/NO; for Assay 2: Cadmium-resistant: * indicates partial
How it was run: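 WI-38 cells were given compounds at five final concentrations (0.25–20 μM) in triplicate, followed by cadmium or MMS for 12 h. For MMS, medium was switched from OptiMEM+10% FBS to serum-free DMEM+2% BSA when compounds were added, 24 h before stressor. Two independent assays were run, analysed by global variance t-test.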

[2] = tested on: FOXO3; test: FOXO3 siRNA knockdown: dependency for H2O2-resistance; type: cell-based, human; details: for FOXO3-dependency for H2O2-resistance (experiment 3): with & without H2O2, FOXO3 knockdown in WI-38 cells; for FOXO3-dependency for H2O2-resistance, at 10 uM - with H2O2, 1st experiment: experiment 1 (1st); for Assay 16: FOXO3-dependency for H2O2-resistance: YES/NO; for Requirement of FOXO3 to promote H2O2-resistance: FOXO3 siRNA, at least 2 of 3 independent experiments
Method: For qPCR analysis, WI-38 cells were treated with small molecules (at 10 μM) (biological quadruplicates) for 24 hrs and processed for RNA isolation and reverse transcription (RT) with the Cells-to-Ct Kit (Life Technologies), following manufacturer's instructions. RT products were diluted with H2O and used for qPCR analysis on an ABI 7300 system (Life Technologies) (technical triplicates). Relative expression levels of target genes were normalized to the genes B2M, PPIA and GAPDH. To knock down the expression of FOXO3 or NRF2, WI-38 cells were transfected, using the RNAiMAX reagents (Life Technologies), with siRNA oligos (at 10 nM final concentration, 10 ml culture medium) for FOXO3 (Life Technologies) or NRF2 (Integrated DNA Technologies) on 10-cm petri dishes for 36 hrs, and then detached and aliquoted onto 96-well (for qPCR analysis) or 384-well plates (for H2O2-stress treatment). ˜24 hrs later, small molecules were introduced and incubated with cells for 24 hrs. Cells were then either processed with the Cells-to-Ct Kit to prepare RT products for qPCR analysis or subjected to H2O2 (700 μM) for 3 hrs and assayed for viability. The knockdown efficiency of FOXO3 or NRF2 was checked at 36 hrs post-transfection and at the end as well. […]
Applicants used siRNA to knock down FOXO3 expression by ˜70% in an attempt to identify whether the activation of these genes depends on activity of FOXO3 and/or NRF2. […] We used siRNA to knock down FOXO3 expression by ˜60% to 70% (FIG. 3; see data in Table 6). […] (Given the caveat that FOXO3 was not fully knocked down, partial dependency was scored when the H2O2-resistance capacity was reduced by at least 25% but less than 50% upon siRNA knockdown). At least for Gr-7A and Gr-7C, which are structurally related, the observed FOXO3-dependency for H2O2-resistance is consistent with their strong effects to induce FOXO3 target genes (Tables 1a-1f, Table 6, & Table 15), including SOD2 and GADD45A.

[3] = tested on: C. elegans; test: C. elegans lifespan assays (liquid and plate); type: in vivo, Caenorhabditis elegans; details: for ILS at 60 µM / ILS at 66 µM: Caenorhabditis elegans; for O = Life span- extending scores in worms: score scale 0 to 2, 4 to 6 independent trials; for M = Lifespan-extending scores in worms: summary score
[4] = tested on: WI-38 cells; details: for Percentage of propidium iodide-positive dead cells (no H2O2 stress treatment), at 10 uM: negative control 0.41% ± 0.23%; for PI cell-death imaging without H2O2 (indicating potential toxicity): Assay 8(k), without H2O2, at 10 uM; for PI-positive dead cells under normal conditions: control 0.4±0.2%
Method: WI-38 cells were seeded on 384-well plates for 24 hrs and then incubated with small molecules for 24 hrs. […] Images were collected on an INCell Analyzer 2000 (GE) and analyzed with the Developer software.

[5] = Exp. 1, WI-38 cells, read-out: Exp. 1, under Cd2Cl2 stress treatment, at 10 uM (fold change)
[6] = Exp. 2, WI-38 cells, read-out: Exp. 2, under Cd2Cl2 stress treatment, at 10 uM (fold change)
[7] = WI-38 cells, 10 μM, both stressors
[8] = score in summary of 38 core set hits
[9] = 10 uM, YES = resistance reduced by at least 50%, partial = 25% to 50%
[10] = 10 uM, with H2O2, FOXO3 knockdown in WI-38 cells, YES = resistance reduced by at least 50%, partial = 25% to 50%
[11] = in liquid, wild type, with FuDR, 1.0 × 10^9 bacteria/ml, read-out: relative change of mean lifespan vs control, Trial 1
[12] = in liquid, wild type, with FuDR, 2.5 × 10^9 bacteria/ml, read-out: relative change of mean lifespan vs control, Trial 2
[13] = on plate, CF512 temperature-sensitive sterile animals, without FuDR, 2.0 × 10^10 bacteria/ml, read-out: relative change of mean lifespan vs control, Trial 3
[14] = Assay 2(z), 1.0 × 10^9 bacteria/ml, wild type + FuDR (2012 July), read-out: Lifespan assay in liquid
[15] = Assay 3(aa), 2.5 × 10^9 bacteria/ml, wild type + FuDR, read-out: Lifespan assay in liquid
[16] = Assay 4(ab), 2.0 × 10^10 bacteria/ml, CF512 worms, no FuDR, read-out: Lifespan assay on plates

| Compound | CdCl2-resistant [1] | H2O2- & CdCl2-resistant [1] | fold induction at 10 µM [1, 5] | fold induction at 10 µM [1, 6] | CdCl2-resistant ([1]; WI-38 cells, 10 μM) | Assay 4: H2O2- & Cd-resistant [1] | Assay 2: Cadmium-resistant [1] | A = Cadmium resistant [1, 8] | A = Cadmium resistant ([1]; summary score) | C = H2O2- & Cd-resistant ([1]; summary score) | I = FOXO3-dependency for H2O2-resistance ([2]; score) | I = FOXO3-dependency for H2O2-resistance ([2]; summary score) | ILS at 60 µM [3, 11] | ILS at 60 µM [3, 12] | ILS at 60 µM [3, 13] | ILS at 66 µM [3, 14] | ILS at 66 µM [3, 15] | ILS at 66 µM [3, 16] | O = Life span- extending scores in worms [3] | M = Lifespan-extending scores in worms [3] | other results |
| --- | --- | --- | --- | --- | --- | --- | --- | --- | --- | --- | --- | --- | --- | --- | --- | --- | --- | --- | --- | --- | --- |
| NS(=O)(=O)c1ccc(NC(=O)c2ccc([N+](=O)[O-])o2)cc1 [Gr-1A] | YES | YES | 1.46 | 1.45 | YES | YES | YES | 1 | 1 | 1 | 0 | 0 | -1.3% | 0.2% | 14.2% | -1.3% | 0.2% | 14.2% | 0 | 0 | H2O2- & CdCl2-resistant [1, 7]: YES; FOXO3-dependency for H2O2-resistance (experiment 3) [2, 9]: No; FOXO3-dependency for H2O2-resistance (experiment 1 & 2) [2, 10]: No; Percentage of propidium iodide-positive dead cells (no H2O2 stress treatment), at 10 uM [4]: 0.79% ± 0.36%, |
| O=C(Nc1cc(C(F)(F)F)ccc1Cl)c1ccc([N+](=O)[O-])o1 [Gr-1B] | YES | YES | 2.01 | 1.72 | YES | YES | YES | 1 | 1 | 1 | 0 | 0 | 12.9% | 8% | 15.1% | 12.9% | 8% | 15.1% | 1 (1 for lifespan extension observed in 2 trials) | 1 (1 for lifespan extension observed in 2 trials) | H2O2- & CdCl2-resistant [1, 7]: YES; PI cell-death imaging without H2O2 (indicating potential toxicity) [4]: YES; PI-positive dead cells under normal conditions ([4]; WI-38, no H2O2): 1.0%±0.3%; Percentage of propidium iodide-positive dead cells (no H2O2 stress treatment), at 10 uM [4]: 1.03% ± 0.34%, |
| CCc1ccccc1NC(=O)c1ccc([N+](=O)[O-])o1 [Gr-1C] | YES | YES | 7.9 | 9.86 | YES | YES | YES | 1 | 1 | 1 | 0 | 0 | 14.4% | 1.7% | 14.7% | 14.4% | 1.7% | 14.7% | 1 (1 for lifespan extension observed in 2 trials) | 1 (1 for lifespan extension observed in 2 trials) | H2O2- & CdCl2-resistant [1, 7]: YES; PI cell-death imaging without H2O2 (indicating potential toxicity) [4]: YES; Percentage of propidium iodide-positive (dead) cells under normal conditions (qualitative) ([4]; WI-38, no H2O2): increased the percentage; PI-positive dead cells under normal conditions ([4]; WI-38, no H2O2): 3.5±1.3%; Percentage of propidium iodide-positive dead cells (no H2O2 stress treatment), at 10 uM [4]: 3.51% ± 1.28%, |
| O=C(NCc1cccnc1)/C(=C\c1cccc(Oc2ccccc2)c1)S(=O)(=O)c1ccccc1 [Gr-7A] |  |  | 0.07 | 0.14 |  | YES | YES | 0 | 1 | 1 | 1 | 1 | 40.6% | 16.2% | 13.9% | 40.6% | 16.2% | 13.9% | 2 (2 for observed in more than 2 trials) | 2 (2 for observed in more than 2 trials) | FOXO3-dependency for H2O2-resistance, at 10 uM - with H2O2, 1st experiment ([2]; 10 uM, with H2O2): 1st, partial;; FOXO3-dependency for H2O2-resistance, at 10 uM - with H2O2, 2nd experiment ([2]; 10 uM, experiment 2 (2nd), with H2O2): 2nd, YES.; FOXO3-dependency for H2O2-resistance, at 10 uM (experiment 3) - with & without H2O2 ([2]; 10 uM): YES; FOXO3-dependency for H2O2-resistance (experiment 3) [2, 9]: YES; FOXO3-dependency for H2O2-resistance, 1st experiment [2, 10]: partial;; FOXO3-dependency for H2O2-resistance, 2nd experiment [2, 10]: YES.; Assay 16: FOXO3-dependency for H2O2-resistance ([2]; 10 uM): YES; Requirement of FOXO3 to promote H2O2-resistance [2]: required FOXO3; ILS at 60 µM ([3]; on plate, CF512 temperature-sensitive sterile animals, without FuDR, 1.0 × 10^11 bacteria/ml, read-out: relative change of mean lifespan vs control, Trial 4): 2.7%; ILS at 66 µM ([3]; Assay 5(ac), 1.0 × 10^11 bacteria/ml, CF512 worms, no FuDR, read-out: Lifespan assay on plates): 2.7%; Extension of C. elegans' lifespan (qualitative) ([3]; in at least 3 to 4 trials, group range ~10% to ~50%): could extend animal's lifespan |
| O=C(NCc1cccnc1)/C(=C/c1ccc(-c2ccc(Cl)cc2)o1)S(=O)(=O)c1ccccc1 [Gr-7C] |  |  | 1.31 | 0.97 |  | YES | YES | 0 | 1 | 1 | 1 | 1 | -29.1% | 10.1% | -41.6% | -29.1% | 10.1% | -41.6% | 0 | 0 | FOXO3-dependency for H2O2-resistance, at 10 uM - with H2O2, 1st experiment ([2]; 10 uM, with H2O2): 1st, YES;; FOXO3-dependency for H2O2-resistance, at 10 uM (experiment 3) - with & without H2O2 ([2]; 10 uM): Partial; FOXO3-dependency for H2O2-resistance (experiment 3) [2, 9]: Partial; FOXO3-dependency for H2O2-resistance, 1st experiment [2, 10]: YES;; Assay 16: FOXO3-dependency for H2O2-resistance ([2]; 10 uM): YES; Requirement of FOXO3 to promote H2O2-resistance [2]: required FOXO3 |
